Source: ChEMBL document CHEMBL4616598 (Bioorg Med Chem, 2020)

Tests used:
[1] = biological target: T1, 5-hydroxytryptamine receptor 1A (Homo sapiens, UniProt P08908); assay: Displacement of [3H]-5-carboxamidotryptamine from human 5-HT1A receptor expressed in HEK293T cell membranes incubated for 90 mins by scintillation counting method; set-up: species or system HEK-293T
T1 sequence (P08908 whole entry): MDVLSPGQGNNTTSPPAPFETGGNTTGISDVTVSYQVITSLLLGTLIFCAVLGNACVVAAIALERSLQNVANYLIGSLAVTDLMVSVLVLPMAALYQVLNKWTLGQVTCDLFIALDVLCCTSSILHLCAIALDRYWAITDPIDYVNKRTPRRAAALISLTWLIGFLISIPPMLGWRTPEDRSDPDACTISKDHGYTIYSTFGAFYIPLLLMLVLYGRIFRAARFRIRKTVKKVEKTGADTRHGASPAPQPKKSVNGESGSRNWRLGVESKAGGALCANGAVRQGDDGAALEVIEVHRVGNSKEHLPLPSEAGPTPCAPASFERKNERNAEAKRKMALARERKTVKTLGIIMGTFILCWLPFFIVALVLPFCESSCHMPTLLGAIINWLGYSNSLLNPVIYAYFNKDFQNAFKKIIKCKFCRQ

Homo sapiens = organism: Homo sapiens; assay: Selectivity ratio of Ki for displacement of [3H]-5-carboxamidotryptamine from human 5-HT1A receptor expressed in HEK293T cell membranes to Ki for displacement of [3H]-5-carboxamidotryptamine from human 5-HT7 receptor expressed in HEK293 cell membranes
[2] = biological target: 5-hydroxytryptamine receptor 7 (Homo sapiens, UniProt P34969); assay: Displacement of [3H]-5-carboxamidotryptamine from human 5-HT7A receptor expressed in HEK293 cell membranes incubated for 90 mins by scintillation counting method
Sequence of 5-hydroxytryptamine receptor 7 (P34969 whole entry): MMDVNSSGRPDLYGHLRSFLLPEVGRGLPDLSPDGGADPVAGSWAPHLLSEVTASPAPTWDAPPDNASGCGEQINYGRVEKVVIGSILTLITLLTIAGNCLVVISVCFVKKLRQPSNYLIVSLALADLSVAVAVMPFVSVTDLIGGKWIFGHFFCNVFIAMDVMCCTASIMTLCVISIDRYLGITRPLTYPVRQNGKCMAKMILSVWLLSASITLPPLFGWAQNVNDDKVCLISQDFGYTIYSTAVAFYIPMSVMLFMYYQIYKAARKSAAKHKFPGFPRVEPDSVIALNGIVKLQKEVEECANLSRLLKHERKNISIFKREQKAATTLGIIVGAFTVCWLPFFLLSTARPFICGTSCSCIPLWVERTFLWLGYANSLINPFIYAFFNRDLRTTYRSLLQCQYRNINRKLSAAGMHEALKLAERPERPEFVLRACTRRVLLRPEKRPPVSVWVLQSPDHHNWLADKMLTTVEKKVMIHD

Row | SMILES | Ki [1] | Ratio Ki (Homo sapiens) | Ki [2]
1 | CN(C)C1CCc2c(cccc2-c2ccc(F)cc2Cl)C1 (racemic) | 33 nM | 2.1 | 16 nM
2 | CCCN(CCC)[C@H]1CCc2c(cccc2-c2ccccc2Cl)C1 | 0.64 nM | 0.11 | 
3 | CN(C)[C@@H]1CCc2c(cccc2-c2ccccc2)C1 | 1100 nM | 0.21 | 5200 nM
4 | Cc1nn(C)c(C)c1-c1cccc2c1CC[C@H](N(C)C)C2 |  | 20 | 
5 | CN(C)C1CCc2c(cccc2-c2ccc(F)cc2)C1 (racemic) | 30 nM | 0.26 | 117 nM
6 | CCCN(CCC)[C@@H]1CCc2c(cccc2-c2ccccc2Cl)C1 | 130 nM | 0.33 | 390 nM
7 | CN(C)C1CCc2c(cccc2-c2cccc(C(F)(F)F)c2)C1 (racemic) | 180 nM | 2.9 | 
8 | CN(C)C1CCc2c(cccc2-c2cncc3ccccc23)C1 (racemic) | 650 nM | 6.7 | 97 nM
9 | CCCN(CCC)[C@@H]1CCc2c(cccc2-c2ccccc2)C1 | 210 nM | 1.1 | 190 nM
10 | CCCN(CCC)[C@H]1CCc2c(cccc2-c2ccccc2)C1 |  | 0.17 | 
11 | CN(C)[C@H]1CCc2c(cccc2-c2ccccc2Cl)C1 |  | 7.6 | 
12 | CN(C)[C@@H]1CCc2c(cccc2-c2ccccc2F)C1 |  |  | 740 nM
13 | CN(C)[C@H]1CCc2c(cccc2-c2cccc3ccccc23)C1 |  | 12 | 
14 | CN(C)[C@H]1CCc2c(cccc2-c2ccc(Cl)cc2)C1 | 190 nM | 1.2 | 160 nM
15 | CN(C)[C@H]1CCc2c(cccc2-c2ccccc2)C1 |  | 0.66 | 9.5 nM
16 | CN(C)C1CCc2c(cccc2-c2cccc3ccccc23)C1 (racemic) | 130 nM | 5.9 | 22 nM
17 | CN(C)[C@@H]1CCc2c(cccc2-c2cc(C(F)(F)F)cc(C(F)(F)F)c2)C1 | > 10000 nM |  | > 10000 nM
18 | CN(C)[C@H]1CCc2c(cccc2-c2ccco2)C1 |  | 0.46 | 71 nM

Row | SMILES | Ki [1] | Ratio Ki (Homo sapiens) | Ki [2]
19 | CN(C)C1CCc2c(cccc2-c2cccc(F)c2)C1 (racemic) | 23 nM | 1.3 | 18 nM
20 | CN(C)[C@H]1CCc2c(cccc2-c2cccs2)C1 | 4.5 nM | 0.26 | 17 nM
21 | CCCN(CCC)[C@@H]1CCc2c(cccc2-c2ccccc2F)C1 | 92 nM | 0.12 | 740 nM
22 | COc1cccc(-c2cccc3c2CCC(N(C)C)C3)c1 (racemic) | 73 nM | 2.6 | 28 nM
23 | CN(C)[C@@H]1CCc2c(cccc2-c2cccs2)C1 | 150 nM | 0.83 | 180 nM
24 | Fc1ccccc1-c1cccc2c1CCC(N1CCCC1)C2 (racemic) |  | 0.025 | 
25 | CN(C)[C@@H]1CCc2c(cccc2-c2ccc(Cl)cc2)C1 | 19 nM | 0.23 | 84 nM
26 | CN(C)[C@@H]1CCc2c(cccc2-c2cccn2C)C1 |  | 0.92 | 600 nM
27 | CN(C)C1CCc2c(cccc2-c2ccccc2Cl)C1 (racemic) | 14 nM | 3.3 | 4.2 nM
28 | CN(C)[C@H]1CCc2c(cccc2-c2cccn2C)C1 | 24 nM | 0.72 | 33 nM
29 | CN(C)C1CCc2c(cccc2-c2cc(F)cc(F)c2)C1 (racemic) | 230 nM | 1.3 | 
30 | CN(C)C1CCc2c(cccc2C2CCCC2)C1 (racemic) | 98 nM | 0.41 | 
31 | CN(C)C1CCc2c(cccc2-c2c3ccccc3cc3ccccc23)C1 (racemic) | 1400 nM | 3.1 | 450 nM
32 | CN(C)C1CCc2c(cccc2-c2cc(Cl)cc(Cl)c2)C1 (racemic) | 2200 nM | 5.5 | 400 nM
33 | CN(C)[C@@H]1CCc2c(cccc2-c2ccco2)C1 | 5600 nM | 2.2 | 2600 nM
34 | CCCN(CCC)[C@H]1CCc2c(cccc2-c2ccccc2F)C1 | 1.8 nM | 0.34 | 5.3 nM
35 | CN(C)C1CCc2c(cccc2-c2cccc(Cl)c2)C1 (racemic) | 82 nM | 3.2 | 26 nM
36 | CN(C)[C@H]1CCc2c(cccc2-c2cc(C(F)(F)F)cc(C(F)(F)F)c2)C1 | 2230 nM | 2.5 | 
